The supplement of paper PMC10307832

Experiments:
Assay in all cases: relative viability (nuclei count vs DMSO), 5 days (fraction); higher = more cells survive
[1] = compound: COC1=C(C=C(C=C1)C2=CC3=NC=CN3C(=N2)NC4=C(C=CC=N4)C(=O)N)OC [BAY61-3606] + N=C(N)NC(=N)NCCc1ccccc1 [Phenformin] (partner 250 µM)
In short: (§1)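 Lung cancer cell lines in 1536-well plates were dosed by pin tool the day after seeding, either with one drug alone or with a fixed anchor-drug dose plus five library-drug doses (not always all listed) in √10 steps. After 5 days, cells were fixed and their nuclei stained in one step (final 0.05% Triton X-100, 1% formaldehyde, 1 ug/ml Hoechst), then counted on 4× images. Relative viability is the nuclei count in treated wells divided by that in vehicle wells. Values are medians of duplicate plates.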

[2] = compound: COC1=C(C=C(C=C1)C2=CC3=NC=CN3C(=N2)NC4=C(C=CC=N4)C(=O)N)OC [BAY61-3606] + O=C(CCCCCCC(=O)Nc1ccccc1)NO [Vorinostat] (partner 1 µM)
In short: as §1

[3] = compound: COc1cccc2c1C(=O)c1c(O)c3c(c(O)c1C2=O)C[C@@](O)(C(=O)CO)C[C@@H]3O[C@H]1C[C@H](N)[C@H](O)[C@H](C)O1 [Doxorubicin] + CS(=O)(=O)CCNCc1ccc(-c2ccc3ncnc(Nc4ccc(OCc5cccc(F)c5)c(Cl)c4)c3c2)o1 [Lapatinib] (partner 2 µM)
In short: as §1

[4] = compound: COc1cccc2c1C(=O)c1c(O)c3c(c(O)c1C2=O)C[C@@](O)(C(=O)CO)C[C@@H]3O[C@H]1C[C@H](N)[C@H](O)[C@H](C)O1 [Doxorubicin] + O=C(CCCCCCC(=O)Nc1ccccc1)NO [Vorinostat] (partner 1 µM)
In short: as §1

Row | Cell Line | relative viability ([1]; first compound 0.02 µM) | relative viability ([1]; first compound 0.06325 µM) | relative viability ([1]; first compound 0.2 µM) | relative viability ([1]; first compound 0.6325 µM) | relative viability ([1]; first compound 2 µM) | relative viability ([2]; first compound 0.02 µM) | relative viability ([2]; first compound 0.06325 µM) | relative viability ([2]; first compound 0.2 µM) | relative viability ([2]; first compound 0.6325 µM) | relative viability ([2]; first compound 2 µM) | relative viability ([3]; first compound 0.001 µM) | relative viability ([3]; first compound 0.003162 µM) | relative viability ([3]; first compound 0.01 µM) | relative viability ([3]; first compound 0.03162 µM) | relative viability ([3]; first compound 0.1 µM) | relative viability ([4]; first compound 0.001 µM) | relative viability ([4]; first compound 0.003162 µM) | relative viability ([4]; first compound 0.01 µM) | relative viability ([4]; first compound 0.03162 µM) | relative viability ([4]; first compound 0.1 µM)
1 | NCI-H358 | 0.371 | 0.32 | 0.351 | 0.244 | 0.158 | 0.697 | 0.759 | 0.631 | 0.658 | 0.386 | 0.503 | 0.441 | 0.334 | 0.195 | 0.207 | 0.838 | 0.679 | 0.407 | 0.138 | 0.101
2 | NCI-H650 | 0.435 | 0.42 | 0.375 | 0.428 | 0.405 | 0.466 | 0.414 | 0.428 | 0.355 | 0.35 | 0.925 | 0.838 | 0.837 | 0.595 | 0.0014 | 0.553 | 0.505 | 0.422 | 0.355 | 0.432
3 | PC-3 [JPC-3] |  | 0.491 | 0.476 | 0.454 | 0.463 | 0.849 | 0.668 | 1.04 | 0.834 | 0.789 | 0.455 | 0.444 | 0.46 | 0.451 | 0.448 | 1.02 | 0.946 | 0.824 | 0.747 | 0.416
4 | HCC-15 | 0.474 | 0.457 | 0.458 | 0.474 | 0.454 | 0.976 | 0.915 | 0.866 | 0.945 | 0.803 | 0.661 | 0.91 | 0.657 | 0.563 | 0.552 | 0.888 | 0.847 | 0.818 | 0.736 | 0.747
5 | NCI-H1650 | 0.506 | 0.351 | 0.48 | 0.378 | 0.224 | 0.611 | 0.551 | 0.5 | 0.665 | 0.61 | 0.208 | 0.612 | 0.25 | 0.202 | 0.14 | 0.52 | 0.625 | 0.417 | 0.181 | 0.16
6 | ABC-1 | 0.254 | 0.269 | 0.219 | 0.227 | 0.284 | 1.41 | 1.08 | 1.3 | 1.3 | 1.28 | 1.14 | 1.54 | 0.975 | 1.07 | 1.1 | 1.25 | 0.999 | 0.908 | 0.509 | 0.309
7 | LCLC-97TM1 | 0.419 | 0.441 | 0.455 | 0.415 | 0.451 | 0.893 | 0.818 | 0.534 | 0.778 | 0.589 | 1.13 | 0.917 | 0.847 | 0.63 | 0.579 | 0.785 | 0.909 | 0.73 | 0.707 | 0.703
8 | NCI-H647 | 0.562 | 0.294 | 0.496 | 0.393 | 0.29 | 0.598 | 0.566 | 0.441 | 0.529 | 0.287 | 1.02 | 1.24 | 0.643 | 0.119 | 0.0876 | 0.546 | 0.671 | 0.387 | 0.132 | 0.189
9 | EPLC-272H | 0.254 | 0.294 | 0.312 | 0.303 | 0.228 | 0.402 | 0.401 | 0.579 | 0.339 | 0.37 | 0.918 | 0.906 | 0.919 | 0.944 | 0.989 | 0.364 | 0.501 | 0.381 | 0.345 | 0.345
